# From patent publication US20220354911A1, “TREATMENT OF TUMORS BY A COMBINATION OF AN ONCOLYTIC ADENOVIRUS, A CDK4/6 INHIBITOR AND A FURTHER THERAPEUTICALLY ACTIVE AGENT” (KLINIKUM RECHTS DER ISAR DER TECHNISCHEN UNIVERSITÄT MÜNCHEN, priority 2019, published 2022)
# How the values were obtained:
# T24 cells = experiment: Potency assay (SRB), XVir-N-31, Palbociclib and JQ-1; format: cell-based, human
# Description: 5000 T24 cells were seeded in 12 well plates and grown in 1 ml RPMI-Medium containing 10% FCS. Next day cells were treated with 500 nM Palbociclib and 300 nM JQ-1. 24 hours post treatment cells were infected with indicated MOIs of XVir-N-31 in 200 μl RPMI-Medium containing no FCS. After 1 hour 800 μl RPMI-Medium containing 10% FCS were added into each well. In addition, 500 nM Palbociclib and 300 nM JQ-1 were added to the medium. SRB-Staining took place 5 days post infection. Mock treated cells were set 100% cell survival.
# SK-N-MC cells = experiment: Potency assay (SRB), XVir-N-31, Abemaciclib and JQ-1; format: cell-based; settings: CDK 4/6 (Abemaciclib) resistant SK-N-MC cells, 200 nM Abemaciclib + 500 nM JQ-1, XVir-N-31, 5 days post infection
# Description: 100,000 SK-N-MC cells/well were seeded in 12-well plates and grown in RPMI Medium containing 10% FCS at 5% CO2 at 37° C. Cells were treated with 200 nM Abemaciclib+500 nM JQ-1 24 hours before and again 1 hour post infection by adding appropriate amount to the medium. Infection of XVir-N-31 took place in 500 μl in RPMI Medium without serum. SRB-Staining took place 5 days post infection. Mock treated cells were set 100% cell survival.
# XVir-N-31 [1] = experiment: XVir-N-31 fiber DNA qPCR in glioblastoma cells, JQ1 and Ribociclib; format: cell-based, Mastadenovirus, Type C, Serotype 5; settings: U87 24 h.p.i., LN229 and T98G 48 h.p.i.
# Description: 1×10^5 cells were seeded in 6 well plates in DMEM medium. The following day the cells were treated with the 500 nM LEE011 and 50 nM JQ1. At the next morning the cells were infected with 20 MOI for U87 and LN229, and 50 MOI for T98G respectively. One hour after infection DMEM Medium containing the inhibitors was added onto the cells. After each time point (4, 24, 48 hours) the cells were washed once with PBS and 200 μl of SDS DNA Lysis Buffer was added. The cells were incubated with Proteinase K for 1 hour before undergoing a phenol-chloroform-isoamylalcohol purification. The DNA was diluted in 1×TE buffer and the concentration of the DNA was determined using a Nanodrop. For each sample a solution of 10 ng/μl was prepared and a RT-qPCR using 50 ng of DNA and a GoTaq Master mix. Specific Fiber forward and reverse primers were used and for the calculation of the Δ ct value specific Actin primers were used as well. For each sample 3 Fiber and 2 Actin values were measured. The calculation was done in excel and each 24 and 48 hours was calculated based on its 4 hours value (initial viral entry, before replication).
# XVir-N-31 [2] = experiment: XVir-N-31 replication in UMUC-3 cells, JQ-1 priming or concurrent treatment (fiber qPCR); format: cell-based, Mastadenovirus, Type C, Serotype 5; settings: UMUC-3, 10 MOI, 100 nM or 500 nM JQ-1, 24 hours post infection
# Description: 2.5×10^4 UMUC-3 cells were seeded in 12 well plates in DMEM medium. The following day the cells were treated with JQ-1 (priming) or DMEM medium. At the next morning the cells were infected with 10 MOI XVir-N-31. One hour after infection DMEM Medium containing JQ-1 was added on the cells (concurrent treatment). After each 4 and 24 hours, the cells were washed once with PBS and 200 μl of SDS DNA Lysis Buffer was added. The cells were incubated with Proteinase K for at least 1 hour before undergoing a phenol-chloroform-isoamylalcohol purification. The DNA was diluted in 1×TE buffer and the concentration of the DNA was determined using a Nanodrop. For each sample a solution of 15 ng/μl was prepared and a RT-qPCR using 75 ng of DNA and a GoTaq Master mix. Specific fiber forward and reverse primers were used and for the calculation of the Δ ct value specific Actin primers were used as well. For each sample 3 Fiber and 3 Actin values were measured. The calculation was done in excel and each 24 hours value was calculated based on its 4 hours value (initial viral entry, before replication).
smiles,measurement,setting,value
"Cc1sc2c(c1C)C(c1ccc(Cl)cc1)=N[C@@H](CC(=O)OC(C)(C)C)c1nnc(C)n1-2 [JQ-1, thieno-triazolo-1-4-diazepine]","cell killing of XVir-N-31, JQ-1 monotherapy","T24 cells; T24, 300 nM JQ-1 alone, 10 and 20 MOI",did not increase cell killing
same,cell killing capacity of XVir-N-31 in combination with Palbociclib,"T24 cells; T24, 500 nM Palbociclib, 300 nM JQ-1, low MOIs, 5 days post infection",increased the cell killing capacity
same,cell killing on addition of JQ-1,SK-N-MC cells,did not increase cell killing
same,XVir-N-31 replication (relative fiber DNA),XVir-N-31 [1],high increase in replication
same,"XVir-N-31 replication, concurrent treatment with JQ-1",XVir-N-31 [2],crucial for dual therapy success
same,"XVir-N-31 replication, priming with JQ-1",XVir-N-31 [2],no beneficial effect
